Test results published in PMC6321222, “An Application of Fit Quality to Screen MDM2/p53 Protein-Protein Interaction Inhibitors” (Molecules, 2018).
Like-named read-outs stand apart in the source and are kept apart here.

Assays:
MDM2/p53 PPI = details: Figure 9, representative of each group; collected from the literature; cited from earlier work
[1] = biological target: T1, human recombinant His-fused soluble protein MDM2 (residues 1–118) (Homo sapiens, UniProt Q00987); experiment: biochemical; format: binding; details: for FQ-Test: fit quality calculated using pKi tested by FP; for Ki: fluorescence polarization assay
T1 construct: His-fused soluble protein MDM2 (residues 1–118); His
T1 sequence (Q00987 1-118): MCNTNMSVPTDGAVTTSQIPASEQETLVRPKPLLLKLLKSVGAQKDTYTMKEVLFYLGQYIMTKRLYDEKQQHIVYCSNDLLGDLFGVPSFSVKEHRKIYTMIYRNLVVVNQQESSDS

HepG2 (wt-p53) = experiment: cells; format: cell-based, human; details: for IC50: Homo sapiens, HepG2, means of three experiments, 72 h, read-out: MTT IC50 HepG2 (wt-p53)
Protocol: (§1) In order to further confirm whether they inhibit MDM2 and release p53, a cellular test using HepG2 cell line (wild-type p53; wt-p53) vs. Hep3B cell line (p53 null) was carried out. The selectivity was calculated by IC50 against Hep3B divided by HepG2 (Table 1). The larger the selectivity value was, the stronger the interaction force between the ligands and MDM2.
(§2) The cellular growth inhibitory activity was determined using two human hepatoma cell lines, HepG2 (with wild-type p53) and Hep3B (with wt-p53 null). The IC50 was then analyzed using the GraphPad Prism 5 software (see Supplemental Materials).
(§3) In vitro antitumor activity.
(§4) Liver hepatocellular carcinoma HepG2 (with wild-type p53) and Hep3B (with p53 null) cell lines […]
(§5) 37°C in a humidified 5% carbon dioxide humidified incubator.
(§6) 5-6×10^4 cells per well were plated in 96-well plates (Costar) for 24 h, and the test compounds (prepared in 100% DMSO as a stock solution) were added in triplicate (100µL per well). 8 different concentrations (from 0.05 to 100µM) were tested for each compound. For each assay, the controls included only the medium (blank) and only the cells (positive). After 72 h of incubation, 20 µL of MTT (3-[4,5-dimethylthiazol-2-yl]-2,5-diphenyltetrazoliumbromide) solution (5 mg/mL) was added to each well, and after the samples were shaken for 1 min the plate was incubated further for 4 h at 37°C. […] were dissolved with 150 µL of DMSO and the plates were read using Eon (BioTek) at 570 nm. The IC50 was then analyzed using GraphPad Prism software. […]

Hep3B (p53 null) = experiment: cells; format: cell-based; details: Homo sapiens, means of three experiments, 72 h, read-out: MTT IC50 Hep3B (p53 null)
Protocol: as §1, §2, §3, §4, §5, §6

[2] = IC50 of Hep3B (p53 null) divided by HepG2 (wt-p53)

| SMILES | IC50 (MDM2/p53 PPI) | FQ-Test [1] | Ki [1] | Selectivity (HepG2 (wt-p53)) | IC50 (HepG2 (wt-p53)) | IC50 (Hep3B (p53 null)) | Selectivity (HepG2 (wt-p53); [2]) |
| --- | --- | --- | --- | --- | --- | --- | --- |
| CCOc1cc(C(C)(C)C)ccc1C1=N[C@@](C)(c2ccc(Cl)cc2)[C@@](C)(c2ccc(Cl)cc2)N1C(=O)N1CCN(CCCS(C)(=O)=O)CC1 [A] | 90 nM |  |  |  |  |  |  |
| CC(C)C(CS(=O)(=O)C(C)C)N1C(=O)C(C)(CC(=O)O)CC(c2cccc(Cl)c2)C1c1ccc(Cl)cc1 (stereo not shown) [B] | 0.1 nM |  |  |  |  |  |  |
| COc1cc(C(=O)O)ccc1NC(=O)[C@@H]1N[C@@H](CC(C)(C)C)[C@](C#N)(c2ccc(Cl)cc2F)[C@H]1c1cccc(Cl)c1F [G] | 6 nM |  |  |  |  |  |  |
| CC(C)(C)CC1NC(C(=O)NC2CCC(O)CC2)C(c2cccc(Cl)c2F)C12C(=O)Nc1cc(Cl)ccc12 (stereo not shown) [H] | 214 nM |  |  |  |  |  |  |
| CCCCN1C(=O)[C@](O)(CC(=O)c2ccccc2OC)c2cc(Br)ccc21 [compound 1] |  | 0.75 | 3900 nM | 8.98 | 8.63 µM | 77.5 µM |  |
| COc1ccc(OC)c(S(=O)(=O)N(C)CC(=O)Nc2ccccc2OC)c1 [compound 2] |  | 0.78 | 2210 nM |  | 5.38 µM | 33.5 µM | 6.23 |
| O=C(Nc1nc2ccccc2s1)c1ccccc1C(=O)c1ccc(Cl)cc1 [compound 3] |  | 0.86 | 620 nM | 10.75 | 4.4 µM | 47.3 µM |  |
| Nc1c(Cl)cc([C@@H](O)CN[C@H]2c3ccccc3CSc3ccccc32)cc1Cl [compound 4] |  | 0.83 | 820 nM | 6.51 | 5.35 µM | 34.8 µM |  |
| COC(=O)c1cc(Oc2ccc(C(F)(F)F)cc2NS(=O)(=O)c2cccc(Cl)c2C)cs1 [compound 5] |  | 0.80 | 940 nM |  | 4.77 µM | 23.2 µM | 4.87 |
| CCOc1ccccc1Oc1cnc(N)nc1-c1ccc(OCc2ccc(C)cc2)cc1O [compound 6] |  | 0.83 | 590 nM | 3.71 | 5.54 µM | 20.5 µM |  |
